The values that follow come from patent publication US10626092B2, “Polymorphic forms of 3-[(2-butyl-1-(2-diethylamino-ethyl)-1H-benzoimidazol-5-yl]-N-hydroxy-acrylamide and uses thereof” (MEI PHARMA, INC., priority 2016, dated 2020).

Holding throughout (assay type): physicochemical
The nature of series [1]: Physical stability under accelerated aging conditions (40° C./70% RH), physical form re-determined by HT-XRPD. The following applies: physical stability under accelerated aging conditions (40° C./70% RH) for 48 hours. The method, then: Solids were analyzed for their physical stability under accelerated aging conditions (40° C./70% RH) for 48 hours. After the exposure, the physical form was determined again by HT-XRPD analysis. The physico-chemical characterization of the forms was done by TGMS analysis to determine the solvation state of the form and thermal events and by DSC analysis to confirm the thermal events observed in the SDTA signal of the TGA. (See Examples for details.)
Suspensions of 3-[2-butyl-1-(2-diethylamino-ethyl)-1H-benzoimidazol-5-yl]-N-hydroxy-acrylamide dihydrochloride monohydrate (Form 1) and 2.5 hydrate (Form 3) were prepared in 12 process relevant solvent systems. The suspensions were cycled between 5° C. and 50° C. followed by aging at 25° C. for 72 hours. […] Upon completion of the incubation time, the solids were collected, dried under ambient conditions and dried under deep vacuum before being analyzed by HT-XRPD. All the measured solids were exposed to accelerated ageing conditions (2 days at 40° C./70% RH) followed by re-analysis by HT-XRPD.
Long-term slurry conversion experiments were carried out by preparing suspensions of 3-[2-butyl-1-(2-diethylamino-ethyl)-1H-benzoimidazol-5-yl]-N-hydroxy-acrylamide dihydrochloride 2.5 hydrate (Form 3) and monohydrate (Form 1) in 12 different solvents and solvent mixtures. Approximately 30 mg of the specific form was dosed in a standard HPLC vial and aliquots of 100 μL of solvent until a suspension was formed. The suspensions were stirred for 2 weeks at room temperature and for 1 week at 50° C. The solids were isolated from the mother liquor and analyzed by HT-XRPD after mild drying under ambient conditions (ambient) and after thorough drying under vacuum (vacuum). All the solids were exposed to accelerated ageing conditions (2 days at 40° C./70% RH) and re-analyzed by HT-XRPD.
(§1) The competitive slurry experiments were performed in ethanol/water mixtures and methanol/water mixtures within a water activity range of 0-0.2. Approximately 50 mg of each pracinostat dihydrochloride solid form 2.5 hydrate and monohydrate were solid dosed in 1.8 mL HPLC vials. Aliquots of 100 μL of the different water mixtures were added until about half of the amount of solid was in solution. Subsequently, the vials were stirred for one week at 5° C., 21° C. and 50° C. Upon completion of the equilibration time, the solids were separated from the liquids by centrifugation. The solids were dried under ambient conditions (ambient) and dried under vacuum (vacuum) before HT-XRPD analysis. All solid samples were exposed to accelerated gaining conditions (40° C. and 70% RH) for two days (AAC). The water content in the liquid phase was determined Karl Fischer analysis.

The nature of series [2]: Competitive slurry conversion (thermodynamic stability) of Form 1 and Form 3. The following applies: ethanol/water, one week slurry. As for the experimental part: as §1, with “Approximately 50 mg of each solid form were solid dosed in a standard HPLC vial followed by solvent addition. The competitive” for “The competitive”, “in solution. […] Upon completion” for “in solution. Subsequently, the vials were stirred for one week at 5° C., 21° C. and 50° C. Upon completion”

Series [3] in a line: Desolvation studies: equilibration at 125° C. in high boiling point solvents. The settings on record: two days; for Form in Ambient AAC: then accelerated aging conditions. The method, then:
Using solvent equilibration of hydrates in high boiling point solvents has been reported as a method to obtaining desolvated forms. […] The experiments were started with approximately 50 mg of material and 100 μL of solvent. After equilibration, the solids were isolated from the solutions by centrifugation. The solids were allowed to dry under ambient conditions before HT-XRPD analysis was performed. The wet solids were analyzed by HT-XRPD immediately to avoid hydration under ambient conditions or under vacuum.

Series [4] in a line: Variable temperature XRPD. The settings on record: 25° C. to 130° C. The method, then:
To investigate the phase interconversions upon temperature exposure, a variable temperature XRPD analysis on 3-[2-butyl-1-(2-diethylamino-ethyl)-1H-benzoimidazol-5-yl]-N-hydroxy-acrylamide dihydrochloride 2.5 hydrate was performed. The experiment was run between 25° C. to 130° C. with cooling back to 25° C. at the end. […] After reaching a temperature of 130° C., the material was cooled back to 25° C.
A variable temperature XRPD experiment with 3-[2-butyl-1-(2-diethylamino-ethyl)-1H-benzoimidazol-5-yl]-N-hydroxy-acrylamide dihydrochloride monohydrate was conducted to investigate the solid form conversion that occurred upon heating. The experiment was run between 25° C. to 143° C. followed by cooling to 25° C., reheating to 155° C. and then cooling again to 25° C. (see FIG. 19).
For variable humidity and temperature experiments the ANSYCO HT chamber was used, installed within the D8 Advance system diffractometer (Bruker) designed with Brag-Brentano geometry and equipped with LynxEye solid state detector. The radiation used for collecting the data was CuKα1 (λ=1.54056 Å) monochromatized by germanium crystal. The material was placed on a fixed sample holder that was mounted inside the chamber.
VT-XRPD: The temperature variation rate was 10° C./min and the equilibration time, prior to starting the data collection at each temperature, was 8 min. The patterns were collected in the range 4-41°2θ, with a step of 0.01573°2θ and measuring time per step of 1 sec. The data collection time, per temperature, was 40 min.

Series [5] can be described thus: Moisture sorption study (DVS analysis). The settings on record: DVS; hydrate.
Series [6] is described as follows: Moisture sorption study (DVS analysis). The following applies: for solid form recovered after DVS: HT-XRPD. The method, then: A moisture sorption study was performed to investigate the physical stability of 3-[2-butyl-1-(2-diethylamino-ethyl)-1H-benzoimidazol-5-yl]-N-hydroxy-acrylamide dihydrochloride 2.5 hydrate upon exposure to several relative humidity profiles. HT-XRPD analyses were performed on the solid material obtained after the DVS analyses. The analytical method is described herein.
Differences in hygroscopicity (moisture uptake) of the various forms of a solid material provided a measure of their relative stability at increasing relative humidity. Moisture sorption isotherms of small samples were obtained using a DVS-1 system from Surface Measurement Systems (London, UK); this instrument is suitable for use with as little as a few milligrams of sample, with an accuracy of 0.1 μg. Several humidity profile were applied as described in each individual experiment. Steps consisted of 10% RH. Weight equilibration per step was set with a minimum holding time of 1 hour (10% relative humidity step). At the end of the DVS experiments, the recovered solid material was measured by HT-XRPD.

Series [7] in a line: Thermocycling studies. The method, then:
The suspensions were cycled between 5° C. and 50° C. followed by aging at 25° C. for 72 hours. […] Upon completion of the incubation time, the solids were collected, dried under ambient conditions and dried under deep vacuum before being analyzed by HT-XRPD. All the measured solids were exposed to accelerated ageing conditions (2 days at 40° C./70% RH) followed by re-analysis by HT-XRPD.

The nature of series [8]: Long-term slurry conversion experiments. The settings on record: drying the solids under vacuum; converts to 2.5 hydrate Form 3. The method, then:
Approximately 30 mg of the specific form was dosed in a standard HPLC vial and aliquots of 100 μL of solvent until a suspension was formed. […] The solids were isolated from the mother liquor and analyzed by HT-XRPD after mild drying under ambient conditions (ambient) and after thorough drying under vacuum (vacuum). All the solids were exposed to accelerated ageing conditions (2 days at 40° C./70% RH) and re-analyzed by HT-XRPD.

Setting [9] is: four sorption-desorption cycles 0-95-0% RH.

Each structure is given as a SMILES string. Structures can show the parent of a compound that is named as a salt.

With `CCCCc1nc2cc(/C=C/C(=O)NO)ccc2n1CCN(CC)CC` [Form 4, 3-[2-butyl-1-(2-diethylamino-ethyl)-1H-benzoimidazol-5-yl]-N-hydroxy-acrylamide dihydrochloride 1.5 hydrate], the Stability result in series [1] (hydrate) is reported as “Unstable”.

For the compound `CCCCc1nc2cc(/C=C/C(=O)NO)ccc2n1CCN(CC)CC` [Form 3, 3-[2-butyl-1-(2-diethylamino-ethyl)-1H-benzoimidazol-5-yl]-N-hydroxy-acrylamide dihydrochloride 2.5 hydrate], the “water content of the solvent system at which the form is the most stable / obtained form” value is “above 2%” in series [2] (5° C. (below ambient), hydrate) and “above 3%” in series [2] (ambient conditions, hydrate). Moreover, the “Form in Ambient” value is on record as “Mono” in series [3] (Anisole); “Mono” in series [3] (Cumene); “Mono” in series [3] (N-Methyl-2-pyrrolidone, hydrate); “Mono” in series [3] (p-Xylene). The “Form in Ambient AAC” value in series [3] (Anisole) is reported as 2.5; in series [3] (Cumene, hydrate), 2.5 + Mono; in series [3] (N-Methyl-2-pyrrolidone) it was 2.5; in series [3] (p-Xylene), 2.5. For the same compound, the “temperature at which conversion to a new solid form was initially observed” value in series [4] came to 60 °C. For the same compound, in series [4], the “temperature at which conversion to the new solid form was completed” value came to 70 °C. Further, the “temperature at which second conversion (to Form 5) was completed” value in series [4] was 110 °C. For the same compound, in series [4], the “temperature at which second conversion (to Form 5) was observed” value turned out to be 100 °C. The hygroscopicity entry in series [5] was “not hygroscopic”; in series [6] (DVS, hydrate) it was “non-hygroscopic”. Moreover, the Stability result in series [1] (hydrate) is “Stable”. The “solid form recovered after DVS” value is on record as “converted to a new solid form designated Form 6” in series [6] (0% RH for 18 hours) and 2.5 hydrate was recovered in series [6] (two sorption-desorption cycles 45-95-0-95-0-45% RH, hydrate). For the same compound, the “gradual loss of water” value in series [6] (constant 0% RH for 18 hours, in the first 5 hours) was determined as 8%. Further, in series [6] (setting [9]), the “mass loss at 0% RH” value is “about 2%”. Besides, the “relative humidity below which the water is gradually lost” value in series [6] (setting [9]) is “below 15 % RH”. Besides, the “relative humidity values at which the form does not change” value in series [6] (setting [9]) was 25-95%. The “water loss between 5-0% RH” value in series [6] (two sorption-desorption cycles 45-95-0-95-0-45% RH) is “about 2%”. Besides, the “solid form after thermocycling” value is “converted to the monohydrate Form 1” in series [7] (ethanol, absolute or extra dry, hydrate) and “converts to the monohydrate Form 1” in series [7] (methanol, no water present). Also, the “relative stability of the form” value was “most stable form in a wide range of ethanol/water mixtures” in series [7] (thermocycling in ethanol/water mixtures) and “most stable form in a wide range of methanol/water mixtures” in series [7] (thermocycling in methanol/water mixtures).

For the compound `CCCCc1nc2cc(/C=C/C(=O)NO)ccc2n1CCN(CC)CC` [Form 9, 3-[2-butyl-1-(2-diethylamino-ethyl)-1H-benzoimidazol-5-yl]-N-hydroxy-acrylamide dihydrochloride anhydrous], in series [2] (50° C. (elevated temperatures)), the “water content of the solvent system at which the form is the most stable form” value is “below 1.5%”. For the same compound, the “water content of the solvent system at which the form is the most stable / obtained form” value in series [2] (ambient conditions) is “below 2.5%”. The Stability result in series [1] was “Unstable”.

As for `CCCCc1nc2cc(/C=C/C(=O)NO)ccc2n1CCN(CC)CC` [Form 10, 3-[2-butyl-1-(2-diethylamino-ethyl)-1H-benzoimidazol-5-yl]-N-hydroxy-acrylamide dihydrochloride hemihydrate], the Stability result in series [1] (dihydrochloride hemihydrate) was “Unstable”. Further, the “physical stability under ambient conditions” value in series [6] (form appearing at 0% RH, converts to 2.5 hydrate (Form 3)) was “physically unstable”.

Regarding `CCCCc1nc2cc(/C=C/C(=O)NO)ccc2n1CCN(CC)CC` [Form 5, 3-[2-butyl-1-(2-diethylamino-ethyl)-1H-benzoimidazol-5-yl]-N-hydroxy-acrylamide dihydrochloride], the Stability result in series [1] (dihydrochloride) is “Unstable”.

As for `CCCCc1nc2cc(/C=C/C(=O)NO)ccc2n1CCN(CC)CC` [Form 2, 3-[2-butyl-1-(2-diethylamino-ethyl)-1H-benzoimidazol-5-yl]-N-hydroxy-acrylamide dihydrochloride trihydrate], the Stability entry in series [1] (dihydrochloride trihydrate) is recorded as “Unstable”. The “physical stability upon drying” value in series [8] is “physically unstable”.
